pKi: −log10 of the molar value. Where a name gives a salt, the structure may show the parent alone. Read-outs that look alike come from different tables or passages of the source.
Legend:
recombinant human AChE = target: T1, recombinant human AChE (Homo sapiens, UniProt P22303); test: Enzyme kinetic study (Ellman's assay, Lineweaver-Burk) with AChE; format: biochemical; details: for AChE mode of inhibition: from Lineweaver-Burk plots
T1 construct: purchased MilliporeSigma Canada Ltd. (Oakville, Ontario, Canada)
T1 sequence (P22303 32-614): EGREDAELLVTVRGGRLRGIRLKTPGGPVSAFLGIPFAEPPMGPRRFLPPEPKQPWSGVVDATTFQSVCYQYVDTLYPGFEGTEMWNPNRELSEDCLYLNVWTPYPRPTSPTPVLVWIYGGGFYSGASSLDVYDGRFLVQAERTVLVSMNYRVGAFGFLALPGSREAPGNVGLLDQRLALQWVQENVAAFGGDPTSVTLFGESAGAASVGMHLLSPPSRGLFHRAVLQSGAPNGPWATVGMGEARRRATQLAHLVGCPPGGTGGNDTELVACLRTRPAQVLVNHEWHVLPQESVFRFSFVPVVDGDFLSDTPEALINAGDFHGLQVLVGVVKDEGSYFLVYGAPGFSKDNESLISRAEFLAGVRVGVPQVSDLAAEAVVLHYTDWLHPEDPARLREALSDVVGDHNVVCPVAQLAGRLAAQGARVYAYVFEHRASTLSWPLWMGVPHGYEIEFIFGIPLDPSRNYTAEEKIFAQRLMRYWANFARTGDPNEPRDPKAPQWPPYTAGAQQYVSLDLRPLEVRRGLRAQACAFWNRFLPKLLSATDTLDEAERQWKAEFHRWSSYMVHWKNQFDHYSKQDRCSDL
Description: (§1) Enzyme kinetic studies were performed as previously described, using Ellman’s assay. Briefly, in a quartz cuvette (1 cm pathlength), a 0.577 mM DTNB solution in 0.1 M potassium phosphate buffer (1.6 mL, pH 7.0) was combined at room temperature with either recombinant AChE (0.1 mL, 3.7 nM) in 0.005% aqueous gelatin or purified human serum BChE (0.1 mL, 5.85 nM) in 0.005% aqueous gelatin and mixed with a senolytic or nootropic compound (Figure 1) dissolved in 50% (v/v) aqueous acetonitrile (0.05 mL). […] Substrate concentrations were kept constant while the senolytic concentrations varied (0-140 μM). Changes in absorbance (ΔA/min), reflecting the rate of ATChI or BTChI hydrolysis with their respective enzymes, were recorded spectrophotometrically every 5 seconds for 1 minute.
(§2) As done previously, Lineweaver-Burk plots were generated for each senolytic and nootropic compound with the velocity (v) of each reaction determined using Beer’s Law, where v = (ΔA/min)/(εl), ε is the molar extinction coefficient for 5-thio-2-nitrobenzoic acid (TNB) (13600 M^−1 cm^−1), and l is the cuvette pathlength (1 cm). Replotting the calculated slopes from each double reciprocal plot against senolytic and nootropic concentrations, gave the inhibitor constant (Ki, M) as the x-intercept. The mode of inhibition (competitive, non-competitive, mixed non-competitive, or uncompetitive) was also determined by analyzing the relational pattern of linear regressions for varying concentrations of the same senolytic or nootropic compound. Enzyme kinetic experiments were performed in triplicate and kinetic parameter values were averaged.

[1] = target: T2, BChE purified from human plasma (Homo sapiens, UniProt P06276); test: Enzyme kinetic study (Ellman's assay, Lineweaver-Burk) with BChE; format: biochemical; details: for BChE mode of inhibition: from Lineweaver-Burk plots
T2 construct: BChE purified from human plasma was a gift from Dr. Oksana Lockridge; tissue gift from Dr. Oksana Lockridge (Eppley Institute, University of Nebraska Medical Center); host or cells: human plasma
T2 sequence (P06276 29-602): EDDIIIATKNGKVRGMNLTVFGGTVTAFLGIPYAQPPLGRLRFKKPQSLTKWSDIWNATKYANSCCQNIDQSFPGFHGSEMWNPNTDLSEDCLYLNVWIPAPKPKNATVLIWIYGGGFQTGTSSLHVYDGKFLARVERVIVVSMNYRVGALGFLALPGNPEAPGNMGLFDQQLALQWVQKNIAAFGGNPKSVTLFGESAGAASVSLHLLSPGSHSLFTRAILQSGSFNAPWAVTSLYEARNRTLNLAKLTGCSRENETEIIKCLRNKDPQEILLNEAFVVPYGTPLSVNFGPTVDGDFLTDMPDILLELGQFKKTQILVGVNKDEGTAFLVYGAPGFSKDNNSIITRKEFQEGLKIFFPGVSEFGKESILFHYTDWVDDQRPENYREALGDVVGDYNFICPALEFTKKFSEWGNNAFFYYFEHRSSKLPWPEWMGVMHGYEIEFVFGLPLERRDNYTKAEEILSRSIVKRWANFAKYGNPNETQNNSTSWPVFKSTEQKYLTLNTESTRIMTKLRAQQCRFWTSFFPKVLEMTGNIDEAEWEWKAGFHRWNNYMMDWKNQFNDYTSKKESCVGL
Description: as §1, §2

BChE = details: read-out: Literature BChE Ki values, cited from earlier work
[2] = target: T3, AChE associated with β-amyloid plaques (Homo sapiens, UniProt P22303); test: Karnovsky-Roots histochemical staining, AChE associated with plaques (pH 6.8); format: biochemical; details: for Inhibition of AChE staining associated with plaques (in words): pH 6.8, compared with control staining; for Inhibition of staining, AChE pH 6.8: plaques, AD orbitofrontal cortex, average ranking of four AD cases, compound 0.25-1.3 mM in KR solution
T3 construct: post-mortem brain tissues from sex- and age-matched AD cases; tissue Maritime Brain Tissue Bank, Dalhousie University; host or cells: post-mortem human AD brain: orbitofrontal cortex (plaques, pH 6.8) and thalamus (normal neural elements, pH 8.0)
T3 sequence (P22303 32-614): as the sequence (P22303 32-614) above
Description: (§3) Histochemical staining for AChE and BChE activity in brain tissues was done using a modified Karnovsky-Roots (KR) method. Tissue sections were first rinsed for 30 min in 0.1 M PB, followed by 30 min in 0.1 M PB with […] hydrogen peroxide (H2O2) and then rinsed for 30 min with 0.1 M maleate buffer (MB; pH 6.8 or […]) prior to incubation in the KR solution. Sections stained for AChE were incubated in the KR solution for 1.75 hr, while sections stained for BChE were incubated for 2.5 hr. The KR staining solution contained 0.5 mM sodium citrate, 0.47 mM cupric sulfate, and 0.05 mM of potassium ferricyanide, a thioester ChE substrate and ChE inhibitor in MB at pH 6.8 to stain for ChEs associated with AD pathology or pH 8.0 to stain for ChEs associated with normal neural elements. For AChE staining, ATChI (0.4 mM) was used as the substrate and ethopropazine (0.06 mM) was used to inhibit BChE. For BChE staining, BTChI (0.8 mM) was used as the substrate and BW 284c51 (0.01 mM) was used to inhibit AChE. Following incubation in KR, sections were rinsed in distilled water (dH2O) for 30 min, incubated in a 0.1% cobalt chloride solution in dH2O for 10 min, and rinsed again in dH20 for 30 min. Sections were incubated in 1.39 mM 3,3’-diaminobenzidine tetrahydrochloride (DAB) in PB (pH 7.4) for 5 min and then developed using 50 μL of 0.3% H2O2 per mL of DAB solution. The reaction was stopped by a 30 min rinse in 0.01 M acetate buffer (pH 3.3). Stained sections were mounted on glass slides, cover-slipped and examined with brightfield microscopy.
(§4) To evaluate the interactions of senolytic and nootropic compounds with ChEs in brain tissues, the above histochemical technique was used with minor variations to the KR incubation. Senolytic and nootropic compounds were dissolved in 50% aqueous acetonitrile to make a stock solution. […] Following incubation for AChE (1.75 hr) and BChE (2.5 hr) in the KR solution, staining was completed as described above.
(§5) Positive controls included staining for BChE and AChE activity at pH 6.8 and pH 8.0 without any additions. Negative controls were utilized to validate staining specificity of BChE and AChE at pH 6.8 and pH 8.0, where the substrates (BTChI and ATChI, respectively) were omitted, as previously described. […] Briefly, 50% aqueous acetonitrile was added to the KR solution, without any senolytic or nootropic compound, while maintaining the same volume as the compound additives.
(§6) A qualitative method was used to evaluate the effect of senolytic and nootropic compounds on ChE histochemical staining, as done previously. Inhibition of staining intensity was categorized as follows: No reduction (-), slight (x), moderate (xx), or strong (xxx). Tissue sections were analyzed using brightfield microscopy on an Olympus BX50F microscope (Olympus Optical Co., Ltd., Tokyo, Japan). Photomicrographs of the stained tissue sections were taken using a Zeiss Axio Scan.Z1 slide scanner with Zen 3.1 Blue Edition software (Carl Zeiss Canada Ltd., Toronto, Ontario, Canada). Figures were assembled using Adobe Photoshop (CS 5, Version 12.0, San Diego, CA, USA). The brightness of each individual image was adjusted to ensure backgrounds matched for analysis.

[3] = target: T4, BChE associated with β-amyloid plaques (Homo sapiens, UniProt P06276); test: Karnovsky-Roots histochemical staining, BChE associated with plaques (pH 6.8); format: biochemical; details: for Inhibition of BChE staining associated with plaques (in words): pH 6.8, compared with control staining; for Inhibition of staining, BChE pH 6.8: plaques, AD orbitofrontal cortex, average ranking of four AD cases, compound 0.25-1.3 mM in KR solution
T4 construct: post-mortem brain tissues from sex- and age-matched AD cases; tissue Maritime Brain Tissue Bank, Dalhousie University; host or cells: post-mortem human AD brain: orbitofrontal cortex (plaques, pH 6.8) and thalamus (normal neural elements, pH 8.0)
T4 sequence (P06276 29-602): as the sequence (P06276 29-602) above
Description: as §3, §4, §5, §6

[4] = target: T5, AChE associated with normal neural elements (Homo sapiens, UniProt P22303); test: Karnovsky-Roots histochemical staining, AChE associated with normal neural elements (pH 8.0); format: biochemical; details: for Inhibition of staining, AChE pH 8.0: normal neural elements, AD thalamus, average ranking of four AD cases, compound 0.25-1.3 mM in KR solution; for Inhibition of AChE staining associated with normal neural elements (in words): pH 8.0, relative to controls
T5 construct: post-mortem brain tissues from sex- and age-matched AD cases; tissue Maritime Brain Tissue Bank, Dalhousie University; host or cells: post-mortem human AD brain: orbitofrontal cortex (plaques, pH 6.8) and thalamus (normal neural elements, pH 8.0)
T5 sequence (P22303 32-614): as the sequence (P22303 32-614) above
Description: as §3, §4, §5, §6

[5] = target: T6, BChE associated with normal neural elements (Homo sapiens, UniProt P06276); test: Karnovsky-Roots histochemical staining, BChE associated with normal neural elements (pH 8.0); format: biochemical; details: for Inhibition of staining, BChE pH 8.0: normal neural elements, AD thalamus, average ranking of four AD cases, compound 0.25-1.3 mM in KR solution; for Inhibition of BChE staining associated with normal neural elements (in words): pH 8.0, relative to controls
T6 construct: post-mortem brain tissues from sex- and age-matched AD cases; tissue Maritime Brain Tissue Bank, Dalhousie University; host or cells: post-mortem human AD brain: orbitofrontal cortex (plaques, pH 6.8) and thalamus (normal neural elements, pH 8.0)
T6 sequence (P06276 29-602): as the sequence (P06276 29-602) above
Description: as §3, §4, §5, §6

AChE = details: ref Katalinić et al. [60]; read-out: Literature AChE Ki values; cited from earlier work
[6] = tested on: ChE associated with plaques; details: ref [37]; cited from earlier work
[7] = tested on: ChE associated with normal neural elements; details: ref [37]; cited from earlier work
[8] = purified human serum BChE, BTChI substrate, pH 7.0, triplicate

O=c1c(O)c(-c2ccc(O)c(O)c2)oc2cc(O)cc(O)c12 [Quercetin (4), quercetin]
pKi (recombinant human AChE): 4.21
AChE mode of inhibition (recombinant human AChE): (Mixed Non-competitive)
BChE mode of inhibition [1]: (Mixed Non-competitive)
pKi (BChE; ref Katalinić et al. [60]): 4.17
pKi (BChE; ref Orhan et al. [87]): 4.33

COc1ccc(COc2ccc(Cc3cnc(N)nc3N)cc2OC)cc1 [GW2580 (5), GW2580]
pKi (recombinant human AChE): 4.15
AChE mode of inhibition (recombinant human AChE): (Mixed Non-competitive)
Experimental BChE Ki [1, 8]: No Inhibition
Experimental BChE Ki ([1]; purified human serum BChE, BTChI substrate, pH 7.0, triplicate, listed as 5): did not inhibit
Inhibition of AChE staining associated with plaques (in words) [2]: did not inhibit
Inhibition of staining, AChE pH 6.8 [2]: - (– (no inhibition))
Inhibition of BChE staining associated with plaques (in words) [3]: did inhibit
Inhibition of staining, BChE pH 6.8 [3]: x/xx
Inhibition of staining, AChE pH 8.0 [4]: - (– (no inhibition))
Inhibition of AChE staining associated with normal neural elements (in words) [4]: did not inhibit
Inhibition of staining, BChE pH 8.0 [5]: - (– (no inhibition))
Inhibition of BChE staining associated with normal neural elements (in words) [5]: did not inhibit

O=c1c(O)c(-c2ccc(O)c(O)c2)oc2cc(O)ccc12 [Fisetin (3), fisetin]
AChE mode of inhibition (recombinant human AChE): competitive inhibition
pKi (recombinant human AChE; recombinant human AChE, ATChI substrate, pH 7.0, triplicate, read-out: Experimental AChE Ki): 3.96
BChE mode of inhibition [1]: uncompetitive inhibition
pKi ([1]; purified human serum BChE, BTChI substrate, pH 7.0, triplicate, read-out: Experimental BChE Ki): 4.03
pKi (AChE): 4.00
pKi (BChE; ref Katalinić et al. [60]): 4.03

COc1ccc2c3c1O[C@H]1C[C@@H](O)C=C[C@@]31CCN(C)C2 [galantamine]
Inhibition of ChE staining associated with plaques [6]: inhibits
Inhibition of ChE staining associated with normal neural elements [7]: inhibits

CN(C)CCOC(=O)COc1ccc(Cl)cc1 [Meclofenoxate Hydrochloride (6), meclofenoxate hydrochloride]
pKi (recombinant human AChE): 4.20
AChE mode of inhibition (recombinant human AChE): (Mixed Non-competitive)
BChE mode of inhibition [1]: (Mixed Non-competitive)
Inhibition of AChE staining associated with plaques (in words) [2]: moderate to strong inhibition
Inhibition of BChE staining associated with plaques (in words) [3]: slight inhibition
Inhibition of staining, AChE pH 8.0 [4]: - (– (no inhibition))
Inhibition of AChE staining associated with normal neural elements (in words) [4]: did not inhibit
Inhibition of staining, BChE pH 8.0 [5]: - (– (no inhibition))
Inhibition of BChE staining associated with normal neural elements (in words) [5]: did not inhibit

Cc1nc(Nc2ncc(C(=O)Nc3c(C)cccc3Cl)s2)cc(N2CCN(CCO)CC2)n1 [Dasatinib (1), dasatinib]
pKi (recombinant human AChE): 4.55
AChE mode of inhibition (recombinant human AChE): (Mixed Non-competitive)
BChE mode of inhibition [1]: (Mixed Non-competitive)
Inhibition of AChE staining associated with plaques (in words) [2]: reduced by varying degrees
Inhibition of staining, AChE pH 6.8 [2]: xx/x^a
Inhibition of BChE staining associated with plaques (in words) [3]: complete inhibition
Inhibition of staining, BChE pH 6.8 [3]: xxx (xxx (strong inhibition))
Inhibition of staining, AChE pH 8.0 [4]: - (– (no inhibition))
Inhibition of AChE staining associated with normal neural elements (in words) [4]: no inhibition
Inhibition of staining, BChE pH 8.0 [5]: - (– (no inhibition))
Inhibition of BChE staining associated with normal neural elements (in words) [5]: no inhibition

COC(=O)c1ccc2c(c1)NC(=O)/C2=C(\Nc1ccc(N(C)C(=O)CN2CCN(C)CC2)cc1)c1ccccc1 [Nintedanib (2), nintedanib]
pKi (recombinant human AChE): 5.15
AChE mode of inhibition (recombinant human AChE): (Mixed Non-competitive)
Experimental BChE Ki [1, 8]: No Inhibition
Experimental BChE Ki ([1]; purified human serum BChE, BTChI substrate, pH 7.0, triplicate, listed as 2): did not inhibit
Inhibition of AChE staining associated with plaques (in words) [2]: complete inhibition
Inhibition of staining, AChE pH 6.8 [2]: xxx (xxx (strong inhibition))
Inhibition of BChE staining associated with plaques (in words) [3]: complete inhibition
Inhibition of staining, BChE pH 6.8 [3]: xxx (xxx (strong inhibition))
Inhibition of staining, AChE pH 8.0 [4]: - (– (no inhibition))
Inhibition of AChE staining associated with normal neural elements (in words) [4]: no inhibition
Inhibition of staining, BChE pH 8.0 [5]: - (– (no inhibition))
Inhibition of BChE staining associated with normal neural elements (in words) [5]: no inhibition

Source: PMC11984419, “Differential senolytic inhibition of normal versus Aβ-associated cholinesterases: implications in aging and Alzheimer’s disease” (Aging (Albany NY), 2025)
